From patent US20180311237A1, “COMPOSITIONS AND METHODS FOR PREVENTING AND TREATING MUCOSITIS AND WEIGHT LOSS” (ST IP Holding AG, priority 2007, published 2018)
Read-outs that look alike come from different tables or passages of the source. Marks after values point to notes of the source that are not given here.

Legend:
[1] = 50, 100, 200 or 400 kg/body weight/day orally for 2 consecutive days, observed 30 days
Description: Male Swiss albino mice (Mus musculus), 6-8 weeks old with 25±3 g body weight from an inbred colony (obtained from Hamadard University, Delhi, India) were used for the present study. Animals were maintained under controlled conditions of temperature and light in an animal house and were provided with standard mice feed (procured from Hindustan Lever's Ltd. Delhi, India) and water ad libitum.

[2] = tested on: reduced glutathione (GSH)
Protocol: (§1) Thirty minutes after the last administration, the animals were exposed to 8 Gy gamma radiation. Survival of the animals was recorded for 30 days after irradiation. The reduced glutathione (GSH) and lipid peroxidation (LPO) levels in liver and blood were estimated after 30 minutes of radiation exposure.
The hepatic level of reduced glutathione (GSH) was determined as per the standard method. GSH content in blood was measured
Spectrophotometrically using Ellman's reagent (DTNB) as a colouring reagent. The absorbance was read at 412 nm using a UV-VIS Systronics Spectrophotometer.

[3] = tested on: lipid peroxidation (TBARS)
Protocol: as §1
The absorbance was read at 532 nm.

[4] = tested on: endogenous spleen colony forming units (CFU-S); details: day 10 post-irradiation
Protocol: The endogenous spleen colony assay was done according to the method of Till and McCulloch. Endogenous spleen colony forming units (CFU-S) were determined on day 10 after irradiation. Animals were sacrificed by cervical dislocation. Their spleens were removed, weighed and fixed in Bouin's fixative. Grossly visible nodules on the surface of the spleen were counted with the naked eye.

[5] = tested on: bone marrow cells
Protocol: Cytogenetic damage in the bone marrow cells was studied by chromosomal aberration analysis at the end of the experiments. All animals were injected intra-peritoneally (i.p.) with 0.025% colchicine and sacrificed 2 hours later by cervical dislocation. Both femurs were dissected out. Metaphase plates were prepared by the air drying method. Bone marrow from the femur was aspirated, washed in saline, treated hypotonically (0.6% sodium citrate), fixed in 3:1 methanol:acetic acid, dried and stained with 4% Giemsa (Sigma, USA). Chromosomal aberrations were scored under a light microscope. A total of 400 metaphase plates were scored per animal. Different types of aberration-like chromatid breaks, chromosome breaks, fragments, rings, exchanges and dicentrics were scored. When breaks involved both chromatids, it was termed a “chromosome type” aberration, while “chromatid type” aberrations involved only one chromatid. If the deleted portion had no apparent relation to a specific chromosome, it was called a fragment.

[6] = format: in vivo
Protocol: Ninety-six (96) female nude mice ([…]) were randomly assigned into 8 treatment groups. Each mouse was inoculated with 1×10^6 NCI-H146 (H146) small cell lung cancer cells in a volume of 0.05 mL on their lower left flank with Matrigel. Treatment began once tumors reached a volume of 75-125 mm^3.
Initiation of drug treatment was designated day 1. Mice in groups 1 and 5 received vehicle by oral gavage once daily on days 1 and 3. […] Mice in groups 5 to 8 received radiation. The radiation was given as 2 doses of 2 Gy/dose on days 2 and 4. This was accomplished by anesthetizing the mice in these groups with ketamine (100 mg/kg) and xylazine (5 mg/kg) and placing them under a lead shield such that the region of the flank with tumor exposed to the radiation. Radiation was delivered using a Philips 160 kV source at a focal distance of approximately 40 cm, and a dose rate of approximately 1.0 Gy/min. Tumours were measured on alternating days throughout the duration of the study. All mice were sacrificed on day 21 and remaining tumours were excised, measured, weighed, photographed and fixed in formalin for later analysis.
All animals were weighed every day and their survival recorded, in order to assess possible differences in animal weight among treatment groups as an indication of possible toxicity resulting from the treatments.

[7] = tested on: mice exposed to 10 Gy gamma radiation; details: for day of first death post-irradiation: 1 h before 10 Gy; for increase in survival compared with the CMC and irradiation group / reduction in animal survival compared with the 100 mg/kg group: thirty-day survival
Protocol: Animals of this group received 0.5% carboxymethyl cellulose (CMC) orally before exposure to 10 Gy gamma irradiation.
A batch of ten animals was irradiated each time at a dose rate of 1.33 Gy/min.
After irradiation, the animals were monitored daily for 30 days for the development of symptoms of radiation sickness and mortality.
Animals of this group received 0.5% carboxymethyl cellulose (CMC) orally before exposure to 10 Gy of gamma irradiation.
Animals of this group were treated with 1, 5, 10, 25, 50, 100, 150, 200 or 250 mg/kg body weight of DAPR orally once before exposure to 10 Gy of gamma radiation.
One hour after the administration of CMC or DAPR, the immobilized animals, achieved by inserting cotton plugs in the restrainer, were whole-body exposed to ^60Co gamma radiation (Theratron, Atomic Energy Agency, Canada) in a specially designed well-ventilated acrylic box. A batch of ten animals was irradiated each time at a dose rate of 1.33 Gy/min.
Initially 1, 5 and 10 mg/kg DAPR were also evaluated. […] The radioprotective efficacy of DAPR was evaluated by treating mice with 0, 25, 50, 100, 150, 200 and 250 mg/kg body weight DAPR before whole-body exposure to 10 Gy gamma radiation.

[8] = tested on: bone marrow cells; remark: listed apart in the source
[9] = oral administration with cysteine (Hassan M. Ali et al., 1984); cited from earlier work

Cc1c(-c2cnccn2)ssc1=S
toxic effect (mortality or any other sign) [1]: did not produce any toxic effect
Blood GSH ([2]; drug + 6 Gy): 3.02 ± 0.12^c μg/ml
Liver GSH ([2]; drug + 6 Gy): 52.44 ± 1.54^b μmole/gm
Blood GSH ([2]; drug + 8 Gy): 2.88 ± 0.11^b μg/ml
Liver GSH ([2]; drug + 8 Gy): 54.62 ± 1.72^c μmole/gm
Blood GSH ([2]; drug + 10 Gy): 2.40 ± 0.12 µg/mL
Liver GSH ([2]; drug + 10 Gy): 44.38 ± 1.42^c μmole/gm
Blood GSH ([2]; drug alone, no irradiation): 4.18 ± 0.18 µg/mL
Liver GSH ([2]; drug alone, no irradiation): 65.68 ± 1.48 μmole/gm
Blood LPO ([3]; drug + 6 Gy): 2.44 ± 0.16^c nmol/ml
Liver LPO ([3]; drug + 6 Gy): 3.22 ± 0.12^c nmol/mg
Blood LPO ([3]; drug + 8 Gy): 3.28 ± 0.16^a nmol/ml
Liver LPO ([3]; drug + 8 Gy): 3.80 ± 0.14^c nmol/mg
Blood LPO ([3]; drug + 10 Gy): 3.68 ± 0.18^b nmol/ml
Liver LPO ([3]; drug + 10 Gy): 5.22 ± 0.27^c nmol/mg
Blood LPO ([3]; drug alone, no irradiation): 1.10 ± 0.10 nmol/mL
Liver LPO ([3]; drug alone, no irradiation): 2.42 ± 0.14 nmol/mg
Number of macroscopic colonies ([4]; drug + 6 Gy): 10.22 ± 0.62
Number of macroscopic colonies ([4]; drug + 8 Gy): 13.80 ± 0.84^c
Number of macroscopic colonies ([4]; drug + 10 Gy): 15.22 ± 0.77^c
Chromatid breaks ([5]; drug (100 mg/kg body weight/day) + 8 Gy): 3.18 ± 0.44^a %
Aberrant cells ([5]; drug + 8 Gy): 17.20 ± 1.20^c %
Aberrations per damaged cell ([5]; drug + 8 Gy): 2.21 ± 0.20^a
Centric rings ([5]; drug + 8 Gy): 1.26 ± 0.28%
Chromosome breaks ([5]; drug + 8 Gy): 1.04 ± 0.26^b %
Dicentrics ([5]; drug + 8 Gy): 1.10 ± 0.14%
Exchanges ([5]; drug + 8 Gy): 1.18 ± 0.32^b %
Fragments ([5]; drug + 8 Gy): 28.8 ± 3.20^c %
Polyploidy ([5]; drug + 8 Gy): 0.36 ± 0.01^c %
Pulverized cells ([5]; drug + 8 Gy): 1.28 ± 0.02^c %
Total aberrations ([5]; drug + 8 Gy): 38.10 ± 3.66^c %
Aberrant cells ([5]; drug alone): 0.61 ± 0.04%
Aberrations per damaged cell ([5]; drug alone): 1.21 ± 0.03^c
Centric rings ([5]; drug alone): 0.00 ± 0.00%
Chromatid breaks ([5]; drug alone): 0.14 ± 0.01%
Chromosome breaks ([5]; drug alone): 0.00 ± 0.00%
Dicentrics ([5]; drug alone): 0.00 ± 0.00%
Exchanges ([5]; drug alone): 0.00 ± 0.00%
Fragments ([5]; drug alone): 0.85 ± 0.04^b %
Polyploidy ([5]; drug alone): 0.18 ± 0.02%
Pulverized cells ([5]; drug alone): 0.00 ± 0.00%
Total aberrations ([5]; drug alone): 0.74 ± 0.02%
average loss of starting weight by Day 21 ([6]; 50 mg/kg po on days 1 and 3, no radiation): 0.1%
average gain of starting weight by Day 21 ([6]; 50 mg/kg po on days 1 to 20, no radiation): 0.8%
average gain of starting weight by Day 21 ([6]; 100 mg/kg po on days 1 and 3, no radiation): 4.8%
toxicity based on observations of survival and weight change ([6]; 50 or 100 mg/kg po, with or without radiation, 21 days): no evidence of toxicity
average gain of starting weight by Day 21 ([6]; radiation (2 Gy days 2 and 4) plus 50 mg/kg on days 1 and 3): 0.8%
average gain of starting weight by Day 21 ([6]; radiation plus 50 mg/kg on days 1 to 20): 1.4%
average gain of starting weight by Day 21 ([6]; radiation plus 100 mg/kg on days 1 and 3): 5.1%
day of first death post-irradiation ([7]; 5 mg/kg orally once): 7 days
increase in survival compared with the CMC and irradiation group ([7]; 10 mg/kg, 10 Gy): 20%
increase in survival compared with the CMC and irradiation group ([7]; 25 mg/kg, 10 Gy): 30%
increase in survival compared with the CMC and irradiation group ([7]; 50 mg/kg, 10 Gy): 40%
thirty-day survival ([7]; 100 mg/kg orally before 10 Gy): 60%
day of first death post-irradiation ([7]; 100 mg/kg orally once): 11 days
increase in survival compared with the non-treated irradiated control ([7]; 100 mg/kg, 10 Gy): 60%
reduction in animal survival compared with the 100 mg/kg group ([7]; 150 mg, 10 Gy): 20%
mortality within 10 days of irradiation ([7]; 150 mg/kg orally before 10 Gy): did not cause any mortality
reduction in animal survival compared with the 100 mg/kg group ([7]; 200 mg, 10 Gy): 20%
mortality within 10 days of irradiation ([7]; 200 mg/kg orally before 10 Gy): did not cause any mortality
reduction in animal survival compared with the 100 mg/kg group ([7]; 250 mg/kg, 10 Gy): 30%
optimum protective dose ([7]; oral, before 10 Gy): 100 mg/kg
Number of Mn/1000 Cells ([8]; drug + 8.0 Gy gamma rays): 6.58 ± 0.64^c
Number of Mn/1000 Cells ([8]; drug alone): 0.28 ± 0.01
extent and rate of bioavailability [9]: marked increase
